The record followed here is ChEMBL document CHEMBL5380808, “Design, Synthesis, and Biological Activity of Marinacarboline Analogues as STAT3 Pathway Inhibitors for Docetaxel-Resistant Triple-Negative Breast Cancer” (J Med Chem, 2023).

pIC50: −log10 of the molar value. Calls of active or inactive are those of the source. No cut-off for these calls is given here.

A word on the pIC50: it is the negative decadic logarithm of the IC50, by convention in mol/L.

The test system of assay [1] is MDA-MB-231. As to the kind of experiment: Antitumor activity against docetaxel-resistant human MDA-MB-231-DTR cells xenografted in BALB/c mouse assessed as tumor growth inhibition at 5 mg/kg, ip daily for 12 days. It is filed as functional, organism-based. Particulars: time 12.0 day. Background: A xenograft is tissue or cells of one species grown in another, often human tumour cells in immunodeficient mice.

Assay [2] can be described thus: Fold resistance, ratio of IC50 for antiproliferative activity against docetaxel-resistant human MDA-MB-231-DTR cells to IC50 for antiproliferative activity against human MDA-MB-231 cells. It is filed as functional.
A short description of assay [3]: Synergistic antiproliferative activity against docetaxel-resistant human MDA-MB-231-DTR cells assessed as combination index at 1 uM incubated for 72 hrs in presence of 2 uM of N-(2-(1H-Indol-3-yl)ethyl)-1-(4-bromobenzoyl)-9H-pyrido(3,4-b)indole-3-carboxamide by Chou-Talalay method. The class given is functional.
The subject of assay [4] is MDA-MB-231. As to the kind of experiment: Antiproliferative activity against human MDA-MB-231 cells assessed as reduction in cell viability incubated for 72 hrs by MTT assay. It is filed as functional, cell-based. Particulars: MDA-MB-231, 72 h.
Assay [5] can be described thus: Synergistic antiproliferative activity against docetaxel-resistant human MDA-MB-231-DTR cells assessed as combination index at 2 uM incubated for 72 hrs in presence of 8 uM of N-(2-(1H-Indol-3-yl)ethyl)-1-(4-bromobenzoyl)-9H-pyrido(3,4-b)indole-3-carboxamide by Chou-Talalay method. It is filed as functional.
Assay [6] is described as follows: Synergistic antiproliferative activity against docetaxel-resistant human MDA-MB-231-DTR cells assessed as combination index at 2 uM incubated for 72 hrs in presence of 2 uM of N-(2-(1H-Indol-3-yl)ethyl)-1-(4-bromobenzoyl)-9H-pyrido(3,4-b)indole-3-carboxamide by Chou-Talalay method. The class given is functional.
The test system of assay [7] is MDA-MB-231. Put plainly: Antitumor activity against docetaxel-resistant human MDA-MB-231-DTR cells xenografted in BALB/c mouse assessed as reduction in tumor volume at 5 mg/kg, ip daily for 12 days in presence of N-(2-(1H-Indol-3-yl)ethyl)-1-(4-bromobenzoyl)-9H-pyrido(3,4-b)indole-3-carboxamide. The class given is functional, organism-based. The conditions noted are these: time 12.0 day.

Assay [8] has as its system MDA-MB-231. Put plainly: Antiproliferative activity against human MDA-MB-231 cells transfected with STAT3 plasmid to overexpress STAT3 assessed as effect on cell viability at 10 to 80 nM incubated for 72 hrs by MTT assay. Particulars: dose 10-80 nM. The class given is functional, cell-based. On the technique in general: Tetrazolium dyes change colour on reduction, which living cells bring about.

Assay [9] can be described thus: Synergistic antiproliferative activity against docetaxel-resistant human MDA-MB-231-DTR cells assessed as combination index at 4 uM incubated for 72 hrs in presence of 2 uM of N-(2-(1H-Indol-3-yl)ethyl)-1-(4-bromobenzoyl)-9H-pyrido(3,4-b)indole-3-carboxamide by Chou-Talalay method. It is filed as functional.
Assay [10] in a line: Antiproliferative activity against docetaxel-resistant human MDA-MB-231-DTR cells assessed as reduction in cell viability incubated for 72 hrs by MTT assay. The class given is functional, cell-based. Particulars: MDA-MB-231, 72 h.
The nature of assay [11]: Synergistic antiproliferative activity against docetaxel-resistant human MDA-MB-231-DTR cells assessed as combination index at 4 uM incubated for 72 hrs in presence of 4 uM of N-(2-(1H-Indol-3-yl)ethyl)-1-(4-bromobenzoyl)-9H-pyrido(3,4-b)indole-3-carboxamide by Chou-Talalay method. It is filed as functional.
Assay [12] is described as follows: Synergistic antiproliferative activity against docetaxel-resistant human MDA-MB-231-DTR cells assessed as combination index at 1 uM incubated for 72 hrs in presence of 4 uM of N-(2-(1H-Indol-3-yl)ethyl)-1-(4-bromobenzoyl)-9H-pyrido(3,4-b)indole-3-carboxamide by Chou-Talalay method. The class given is functional.
Assay [13] can be described thus: Synergistic antiproliferative activity against docetaxel-resistant human MDA-MB-231-DTR cells assessed as combination index at 2 uM incubated for 72 hrs in presence of 4 uM of N-(2-(1H-Indol-3-yl)ethyl)-1-(4-bromobenzoyl)-9H-pyrido(3,4-b)indole-3-carboxamide by Chou-Talalay method. The class given is functional.
A short description of assay [14]: Synergistic antiproliferative activity against docetaxel-resistant human MDA-MB-231-DTR cells assessed as combination index at 1 uM incubated for 72 hrs in presence of 8 uM of N-(2-(1H-Indol-3-yl)ethyl)-1-(4-bromobenzoyl)-9H-pyrido(3,4-b)indole-3-carboxamide by Chou-Talalay method. It is filed as functional.
Assay [15] has as its system MDA-MB-231. Put plainly: Antitumor activity against docetaxel-resistant human MDA-MB-231-DTR cells xenografted in BALB/c mouse assessed as reduction in tumor weight at 5 mg/kg, ip daily for 12 days in presence of N-(2-(1H-Indol-3-yl)ethyl)-1-(4-bromobenzoyl)-9H-pyrido(3,4-b)indole-3-carboxamide. The conditions noted are these: time 12.0 day. It is filed as functional, organism-based.

In assay [16] the test system is MDA-MB-231. As to the kind of experiment: Antiproliferative activity against SiRNA mediated STAT3 knockdown docetaxel-resistant human MDA-MB-231-DTR cells assessed as restoration of drug sensitivity by measuring cell viability at 0.5 to 4 uM incubated for 72 hrs by MTT assay. It is filed as functional, cell-based. The conditions noted are these: dose 0.5-4 µM.
The nature of assay [17]: Antiproliferative activity against docetaxel-resistant human MDA-MB-231-DTR cells assessed as reduction in cell viability incubated for 72 hrs by sulforhodamine B assay. It is filed as functional, cell-based. The conditions noted are these: MDA-MB-231, 72 h. (The SRB assay estimates cell density from bound dye.)
Assay [18] in a line: Synergistic antiproliferative activity against docetaxel-resistant human MDA-MB-231-DTR cells assessed as combination index at 4 uM incubated for 72 hrs in presence of 8 uM of N-(2-(1H-Indol-3-yl)ethyl)-1-(4-bromobenzoyl)-9H-pyrido(3,4-b)indole-3-carboxamide by Chou-Talalay method. It is filed as functional.

On to `CC(=O)O[C@@]12CO[C@@H]1C[C@H](O)[C@@]1(C)C(=O)[C@H](O)C3=C(C)[C@@H](OC(=O)[C@H](O)[C@@H](NC(=O)OC(C)(C)C)c4ccccc4)C[C@@](O)([C@@H](OC(=O)c4ccccc4)[C@H]21)C3(C)C` [DOCETAXEL ANHYDROUS], for which the result in the assay on MDA-MB-231 [1] and in the assay with MDA-MB-231 [8] was inactive. Besides, the “Ratio IC50” value in assay [2] was 103.5. Besides, the CI in assay [3] amounted to 0.26; in assay [5] it was 0.45; in assay [6] it was 0.23; in assay [9] it was 0.32; in assay [11], 0.37; in assay [12], 0.38. Also, the CI turned out to be 0.53 in assay [13], 0.66 in [14] and 0.32 in assay [18]. Moreover, the pIC50 was 7.70 in the assay with MDA-MB-231 [4], 5.33 in assay [10] and 5.70 in assay [17]. For the same compound, the result in the assay on MDA-MB-231 [7], in the assay with MDA-MB-231 [15] and in the assay on MDA-MB-231 [16] was Active.
